Ki and IC50 data for one compound are collected here from publication PMC4757881 (Scientific Reports, 2016).

Molecules are shown by their SMILES.

The target of one assay is T1, CB2 receptor (hCB2) (Homo sapiens, UniProt P34972).
T1 construct: gene CNR2
Nature of the assay: radioligand competition ([3H]CP55940) on HEK293 membranes expressing hCB2; agonist in CRE-Luc assay. The assay is classed as binding. In general terms: Loss of bound radioactivity is the signal in a displacement assay; it reports binding, not function.

For a further assay, the target named is T2, PPARγ (Homo sapiens, UniProt P37231).
T2 construct: gene PPARG
T2 sequence (P37231 1-505): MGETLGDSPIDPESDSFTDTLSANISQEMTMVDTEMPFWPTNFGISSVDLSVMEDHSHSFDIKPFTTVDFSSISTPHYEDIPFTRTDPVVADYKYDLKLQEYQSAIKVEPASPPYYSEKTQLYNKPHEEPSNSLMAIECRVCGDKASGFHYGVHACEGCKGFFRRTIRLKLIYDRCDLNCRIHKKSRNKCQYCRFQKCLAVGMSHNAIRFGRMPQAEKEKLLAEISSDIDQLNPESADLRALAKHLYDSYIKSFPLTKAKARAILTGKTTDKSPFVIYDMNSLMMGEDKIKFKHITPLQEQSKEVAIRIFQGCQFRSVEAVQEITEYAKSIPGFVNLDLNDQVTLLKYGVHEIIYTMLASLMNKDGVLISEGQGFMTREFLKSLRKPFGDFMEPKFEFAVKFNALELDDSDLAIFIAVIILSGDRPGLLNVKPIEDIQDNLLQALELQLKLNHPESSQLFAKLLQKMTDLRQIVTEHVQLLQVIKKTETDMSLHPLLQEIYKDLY
The assay is described as follows: fluorescence polarization competition (PolarScreen PPARγ Competitor Assay); GAL4-PPARγ transactivation. The assay is classed as binding. On the technique in general: In fluorescence polarisation assays a small probe gives low polarisation when free and higher when bound to something large.

T1 sequence (P34972 whole entry): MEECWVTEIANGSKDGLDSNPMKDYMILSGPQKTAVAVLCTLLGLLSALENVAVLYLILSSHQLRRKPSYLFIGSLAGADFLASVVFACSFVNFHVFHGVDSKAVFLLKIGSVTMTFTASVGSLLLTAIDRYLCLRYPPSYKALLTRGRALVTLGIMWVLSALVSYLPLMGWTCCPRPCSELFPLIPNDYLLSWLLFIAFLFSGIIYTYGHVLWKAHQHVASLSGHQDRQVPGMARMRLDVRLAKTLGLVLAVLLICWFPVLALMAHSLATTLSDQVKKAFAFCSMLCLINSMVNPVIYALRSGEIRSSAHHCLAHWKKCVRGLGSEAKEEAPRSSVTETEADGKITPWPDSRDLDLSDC

At CB2 receptor (hCB2), `C=C(C)[C@@H]1CCC(C)=C[C@H]1C1=C(O)C(=O)C(CCCCC)=C(NCc2ccccc2)C1=O` [VCE-004.8] showed a Ki of 170 ± 50 nM. On PPARγ, this compound showed an IC50 of 1700 nM.

What is called Ki is the equilibrium dissociation constant of an inhibitor or competing ligand from its target. One may read the IC50 as the concentration that inhibits the measured activity by half. Low readings indicate greater potency, high ones weaker potency.
